What all share (assay): NCI anticancer screen, dose series, 48 h
The subject of assay [1] is 786-0 renal.
Assay [2] concerns A498 renal.
Assay [3] has as its system COLO 205 colon.
The subject of assay [4] is HCC-2998 colon.
Assay [5] relates to HOP-62 NSCLC.
Assay [6] concerns HS 578T breast.
In assay [7] the test system is MALME-3M melanoma.
The test system of assay [8] is MDA-N.
Assay [9] concerns OVCAR-3 ovarian.
Assay [10] has as its system RXF 393 renal.
For assay [11], the system named is SK-MEL-28 melanoma.
Assay [12] has as its system SN12C renal.
Assay [13] has as its system SR leukemia.
The subject of assay [14] is SW-620 colon.
Assay [15] concerns TK-10 renal.
Assay [16] relates to U251 CNS.
Assay [17] deals with UACC-257 melanoma.

The source of these data is PubChem BioAssay (NCI).

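Results reflect a 48-hour exposure of cells in 96-well plates to compound at five concentrations. TGI: concentration producing complete growth inhibition.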

As for `CN(C)CCNC(=O)c1ccc(NCCCN(C)CCCNc2ccc(C(=O)NCCN(C)C)c3[nH]c4ccc([N+](=O)[O-])cc4c(=O)c23)c2c(=O)c3cc([N+](=O)[O-])ccc3[nH]c12`, the TGI in assay [1] is 1.14 µM; in assay [2] it was 0.537 µM; in assay [3] it was 0.502 µM; in [4], 0.254 µM; in assay [5], 1.92 µM; in assay [6] it was greater than 100 µM. Besides, the TGI was found to be 1.37 µM in assay [7]; 0.997 µM in [8]; 1.94 µM in [9]; 0.351 µM in [10]; 1.06 µM in [11]; 0.668 µM in [12]. The TGI was 1.91 µM in assay [13]; 0.557 µM in [14]; 1.38 µM in assay [15]; 0.162 µM in [16]; 1.62 µM in assay [17].

On to `COc1ccc(-n2c3c(c4c(CN(C)C)c(O)ccc42)C(=O)c2ccccc2C3=O)cc1`, for which the TGI in assay [1] was 4.52 µM; in [2] it was 8.47 µM; in assay [3], 20.7 µM; in assay [4], 5.42 µM; in assay [5], 4.72 µM; in assay [6], greater than 100 µM. Besides, the TGI turned out to be 27.1 µM in assay [7]; 21.2 µM in assay [8]; 30.8 µM in assay [9]; 52.2 µM in [10]; 14.7 µM in assay [11]; 7.15 µM in [12]. Also, the TGI in assay [13] was 6.84 µM; in [14], 7.53 µM; in [15], 36.8 µM; in assay [16], greater than 100 µM; in assay [17], 41.2 µM.

On to `CCCC#CC(O)(C(=O)OC1CCN(C)CC1)C1CCCCC1` (stereo not given), for which the TGI in assay [1], in assay [2], in assay [3], in assay [4], in [5] and in assay [6] was greater than 100 µM in each case. The TGI in [7], in assay [8], in [9], in assay [10], in assay [11] and in assay [12] was greater than 100 µM throughout. Besides, the TGI in assay [13], in assay [14], in assay [15], in assay [16] and in assay [17] was greater than 100 µM in each case.

For `Cc1ccc(/C=N/Nc2nncc3ccccc23)s1`, the TGI in assay [1] is greater than 95.1 µM; in assay [2] it was greater than 100 µM; in assay [3], greater than 100 µM; in assay [4], greater than 100 µM; in [5], greater than 77.4 µM; in assay [6], greater than 100 µM. Further, the TGI in assay [7], in [8], in [9], in assay [10], in [11] and in assay [12] was greater than 100 µM each time. In addition, the TGI in assay [13], in assay [14], in assay [15], in [16] and in assay [17] was greater than 100 µM in each case.

On to `Cc1ccc(O)c(-c2csc(NCN3CCN(CNc4nc(-c5cc(C)ccc5O)cs4)CC3)n2)c1`, for which the TGI in assay [1], in assay [2], in assay [3], in assay [4], in assay [5] and in assay [6] was greater than 100 µM each time. Besides, the TGI in [7], in [8], in [9], in assay [10], in [11] and in assay [12] was greater than 100 µM throughout. The TGI in assay [13], in [14], in [15], in [16] and in assay [17] was greater than 100 µM in each case.

Consider `COc1cccc2c1C(=O)c1c(O)c3c(c(O)c1C2=O)C[C@@](O)(/C(C)=N/NC(=O)c1ccccc1)C[C@@H]3OC1CC(N)C(O)C(C)O1` (stereo not given in full), for which the TGI in assay [1] came to 0.744 µM; in assay [2] it was 3.42 µM; in assay [3], 3.2 µM; in assay [4], 2.02 µM; in assay [5], 0.715 µM; in assay [6], 1.82 µM. Further, the TGI is 1.3 µM in assay [7]; 1.96 µM in [8]; 4.55 µM in assay [9]; 1.28 µM in assay [10]; 4.02 µM in assay [11]; 5.7 µM in assay [12]. In addition, the TGI in assay [13] was found to be 0.845 µM; in [14] it was 4.89 µM; in [15] it was 5.85 µM; in [16], 7.18 µM; in [17], 3.51 µM.

Consider `CC(=O)O[C@H]1CC[C@@]2(C)C(=CC[C@@H]3[C@@H]2CC[C@]2(C)c4c(cc(C#N)c(=N)n4C(C)=O)C[C@@H]32)C1`, for which the TGI in assay [1] came to 58.3 µM; in [2], 88.7 µM; in assay [3] it was 35.7 µM; in [4] it was 41.9 µM; in assay [5], 49.4 µM; in [6], 59.6 µM. For the same molecule, the TGI was 31.8 µM in assay [7]; 52.9 µM in [8]; 34.4 µM in [9]; 66.5 µM in assay [10]; 37.3 µM in [11]; 44.8 µM in [12]. In addition, the TGI is 61.2 µM in [13]; 47.5 µM in [14]; 66.8 µM in [15]; greater than 100 µM in assay [16]; 33.9 µM in assay [17].

As for `N#CC(N=Nc1ccccc1)c1nc2ccccc2o1` (stereo not given), the TGI in assay [1] was 45.5 µM; in assay [2], greater than 100 µM; in [3], 68.7 µM; in assay [4], greater than 100 µM; in assay [5], 39 µM; in assay [6], 66.8 µM. Moreover, the TGI in assay [7] was greater than 100 µM; in assay [8] it was greater than 100 µM; in [9], 92.7 µM; in assay [10] it was 61.4 µM; in [11] it was greater than 100 µM; in assay [12], greater than 100 µM. Also, the TGI in [13] was greater than 100 µM; in [15] it was 58.3 µM; in assay [16], 59.5 µM; in [17], greater than 100 µM.
